# Measurements reported in patent US12263248B2, “Compounds and compositions for intracellular delivery of therapeutic agents” (ModernaTX, Inc., priority 2018, dated 2025).
# Experiments:
# luciferase (Luc) mRNA [1] = test: Luc expression in liver, lung, spleen and femur 6 hours after intravenous administration; type: in vivo; settings: mice, 0.5 mpk; for Total Flux Liver / Total Flux Lung / Total Flux Spleen: intravenous
# In short: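 LNP-formulated mRNA given IV to mice (n=3) at 0.5 mpk; at 6 h, bioluminescence imaged ex vivo 15 min after IP D-luciferin (15 mg/mL, 200 μL), organs imaged within 25 min. Values are total flux by region of interest.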
# [2] = Apparent (surface) pKa of the LNP formulation (TNS assay); type: physicochemical; settings: Table 1A
# In short: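 LNP (0.04 mg/mL mRNA) mixed with TNS reagent in 21 buffers spanning about pH 3-12, in triplicate; fluorescence plotted against pH as sigmoidal curve. Apparent pKa taken as […] curve inflection point; validated in 1× PBS and 20 mM Tris w/8% sucrose.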
# [3] = Particle size and polydispersity index of nanoparticle compositions (Zetasizer Nano ZS); type: physicochemical; settings: Table 1A; for Size (nm): lipid:DSPC:cholesterol:PEG-DMG 50:10:38.5:1.5 mol %
# In short: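 Particle size and PDI were measured on a Zetasizer Nano ZS with the nanoparticle compositions dispersed in 1×PBS.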
# luciferase (Luc) mRNA [4] = test: Luc expression, whole body bioluminescence after intravenous administration to mice; type: in vivo; settings: for Total Flux 3 hours / Total Flux 6 hours / Total Flux 24 hours: Luc mRNA; for Fold increase in total body Luc Flux relative to MC3 at 6 h: Table 3A; for Fold increase in total body Luc Flux relative to MC3 at 6 h / 6 h Lipid/MC3 Avg. Luc Expression / Fold increase AUC Lipid/MC3 / AUC (h * p/s): i.v. administration; for 6 h Lipid/MC3 Avg. Luc Expression / Fold increase AUC Lipid/MC3 / AUC (h * p/s): Table 3C; for AUC (h * p/s): Luc
# In short: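 Luc mRNA nanoparticle formulations given intravenously to mice (n=6) at 0.5 mg/kg; whole-body bioluminescence imaged at 3, 6 and 24 h. CD-1 mice received IP D-luciferin (200 μL of 15 mg/mL) 15 min before imaging; total flux quantified by region of interest.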
# [5] = Encapsulation efficiency of RNA (QUANT-IT RIBOGREEN RNA assay); type: physicochemical; settings: Table 1A
# In short: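 RiboGreen fluorescence (ex ~480, em ~520 nm) compared between intact samples and Triton X-100-lysed samples after 15 min at 37 °C in TE buffer, pH 7.5. Percent free RNA is the blank-corrected intact/disrupted ratio.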
Structure (SMILES),Total Flux Liver (luciferase (Luc) mRNA [1]),Total Flux Lung (luciferase (Luc) mRNA [1]),Total Flux Spleen (luciferase (Luc) mRNA [1]),pKa [2],PDI [3],Size (nm) [3] [nm],"Total Flux 3 hours (luciferase (Luc) mRNA [4]; mice, i.v., 0.5 mg/kg)","Total Flux 6 hours (luciferase (Luc) mRNA [4]; mice, i.v., 0.5 mg/kg)","Total Flux 24 hours (luciferase (Luc) mRNA [4]; mice, i.v., 0.5 mg/kg)",EE (%) [5] [%],Fold increase in total body Luc Flux relative to MC3 at 6 h (luciferase (Luc) mRNA [4]),"Flux in the spleen (luciferase (Luc) mRNA [1]; i.v., in words)",6 h Lipid/MC3 Avg. Luc Expression (luciferase (Luc) mRNA [4]),Fold increase AUC Lipid/MC3 (luciferase (Luc) mRNA [4]),AUC (h * p/s) (luciferase (Luc) mRNA [4]),"Flux in the liver (luciferase (Luc) mRNA [1]; i.v., in words)","total flux at 3 hours (luciferase (Luc) mRNA [4]; mice, i.v., 0.5 mg/kg, comparison in words)"
"CCCCCCCCCOC(=O)CCCN(C)CCCCCCCC(=O)OC(CCCCCCCC)CCCCCCCC [Compound 126, Heptadecan-9-yl 8-(methyl(4-(nonyloxy)-4-oxobutyl)amino)octanoate]",7.41E+08,2.68E+06,1.87E+07,6.00,0.18,77.4,7.59E+09,1.09E+10,1.40E+08,96.8,–,–,–,–,–,–,–
"CCCCCCCCCOC(=O)CCCCCCCN(CCO)CCCCCCCCCOP(=O)(OCCCCCCCCC)OCCCCCCCCC [Compound 127, Nonyl 8-((9-((bis(nonyloxy)phosphoryl)oxy)nonyl)(2-hydroxyethyl)amino)octanoate]",1.94E+08,5.26E+06,3.21E+08,6.98,0.19,110.4,3.81E+09,2.09E+09,4.56E+08,89.5,0.094,–,–,–,–,–,–
"CCCCCCCCCCCOC(=O)CCCCCN(CCO)CCCCCCCC(=O)N(CCCCCCCC)CCCCCCCC [Compound 129, Undecyl 6-((8-(dioctylamino)-8-oxooctyl)(2-hydroxyethyl)amino)hexanoate]",6.65E+08,9.89E+06,5.09E+08,7.3,0.19,86.3,5.97E+09,4.51E+09,2.22E+08,77.2,0.203,highest,–,–,–,–,–
"CCCCCCCCC(C)OC(=O)CCCCCCCN(CCO)CCCCCCCC(=O)N(CCCCCCCC)CCCCCCCC (centres unmarked) [Compound 130, Decan-2-yl 8-((8-(dioctylamino)-8-oxooctyl)(2-hydroxyethyl)amino)octanoate]",8.17E+09,5.88E+07,1.35E+09,6.83,0.13,107.1,6.26E+10,8.92E+10,1.08E+09,97,4.02,highest,–,–,–,–,–
"CCCCCCCCCOC(=O)CCCCCCCN(CCO)CCCCCCCOP(=O)(OCCCCCCCC)OCCCCCCCC [Compound 131, Nonyl 8-((7-((bis(octyloxy)phosphoryl)oxy)heptyl)(2-hydroxyethyl)amino)octanoate]",3.52E+08,1.45E+07,8.32E+08,7.76,0.095,167.9,6.97E+09,7.64E+09,2.47E+08,75.44,–,–,1.05,1.13,9.29E+10,–,–
"CCCCCCCCOP(=O)(OCCCCCCCC)OCCCCCCCN(CCO)CCCCCCCC(=O)OC(C)CCCCCCCC (centres unmarked) [Compound 132, Decan-2-yl 8-((7-((bis(octyloxy)phosphoryl)oxy)heptyl)(2-hydroxyethyl)amino)octanoate]",1.49E+08,1.39E+07,3.37E+08,7.34,0.180,298.0,1.77E+09,1.36E+09,5.31E+07,30.77,–,–,0.187,0.212,1.75E+10,–,–
"CCCCCCCCC(CCCCCC)C(=O)OCCCCCCCCCN(CCO)CCCCCCCCCOC(=O)C(CCCCCC)CCCCCCCC (centres unmarked) [Compound 133, ((2-Hydroxyethyl)azanediyl)bis(nonane-9,1-diyl) bis(2-hexyldecanoate)]",2.94E+09,3.18E+06,1.77E+07,6.38,0.098,66.0,3.32E+10,2.93E+10,4.74E+08,91.48,–,–,4.02,4.39,3.62E+11,–,–
"CCCCCCCCCOC(=O)CCCCCCCN(CCO)CCCCCCCCCOC(=O)C(CCCCCC)CCCCCCCC (centres unmarked) [Compound 134, 9-((2-Hydroxyethyl)(8-(nonyloxy)-8-oxooctyl)amino)nonyl 2-hexyldecanoate]",1.73E+09,2.82E+06,1.85E+07,6.66,0.110,85.6,2.01E+10,2.91E+10,8.00E+08,94.62,–,–,3.99,4.16,3.43E+11,–,–
"CCCCCCCCC(C)OC(=O)CCCCCCCN(CCO)CCCCCCCOC(=O)C(CCCCCCCC)CCCCCCCC (centres unmarked) [Compound 135, 7-((8-(Decan-2-yloxy)-8-oxooctyl)(2-hydroxyethyl)amino)heptyl 2-octyldecanoate]",1.65E+10,2.71E+07,1.39E+08,6.47,0.130,89.5,1.24E+11,9.90E+10,2.51E+09,90.20,–,–,13.6,15.2,1.25E+12,highest,highest
"CCCCCCCCC(CCCCCCCC)OC(=O)CCCCCCCN(CCO)CCCCCCCC(=O)N(C)CCCCCCCC [Compound 145, Heptadecan-9-yl 8-((2-hydroxyethyl)(8-(methyl(octyl)amino)-8-oxooctyl)amino)octanoate]",5.01E+08,1.36E+07,4.25E+08,7.25,0.140,176.5,7.11E+09,6.50E+09,2.38E+08,89.15,–,–,0.89,0.983,8.1E+10,–,–
